Results on 20 molecules are retold here after patent US8609661B2, “Pyrimido-pyrrolo-quinoxalinedione inhibitors of cystic fibrosis transmembrane conductance regulator protein and uses therefor” (The Regents of the University of California, priority 2009, dated 2013).

Where two headings read alike, the source gives them in different places.

The IC50 is the concentration that gives 50% inhibition.

The target of the assay is T1, human wildtype CFTR (Homo sapiens, UniProt P13569).
T1 construct: expressed in transfected cells; host or cells: Fischer rat thyroid (FRT) cells
Briefly: Fluorescence platereader assay of CFTR-mediated iodide influx (YFP quenching) in FRT cells. It is filed as cell-based. The settings on record: for inhibition at 5 µM / inhibition at 25 µM: FRT; for IC50: apparent IC50 from concentration-inhibition data, fluorescence platereader assay. Here is the method:
A. Cell lines and compounds—Fischer rat thyroid (FRT) cells co-expressing human wildtype CFTR and the halide indicator YFP-H148Q/1152L were generated as described (see, e.g., Ma et al., J. Clin. Invest. 110:1651-1658 (2002)). Cells were plated in 96-well black-walled microplates (Corning Costar) at a density of 20,000 cells per well in Coon's modified F12 medium supplemented with 5% fetal calf serum, 2 mM L-glutamine, 100 U/mL penicillin, and 100 μg/ml streptomycin. Assays were performed at 48 h after plating the cells when the cells were just confluent. For some experiments, measurements were made using T84 human intestinal epithelial cells and for other experiments, measurements were obtained using primary cultures of human bronchial epithelial cells, which were obtained and grown essentially as previously described (see, e.g., 3 and 27).
B. Compound Screening—Assays were performed using an automated screening platform (Beckman) equipped with FLUOStar fluorescence platereaders (BMG Lab Technologies, Offenburg, Germany) as described (see Ma et al., supra). Each well of a 96-well plate containing FRT cells was washed 3 times in PBS (300 μL/wash), leaving 50 μL PBS. […] After 15 min, 96-well plates were transferred to a plate reader for fluorescence assay. Each well was assayed individually for CFTR-mediated iodide influx by recording fluorescence continuously (200 ms per point) for 2 s (baseline) and then for 10 s after rapid addition of 160 μL of isosmolar PBS in which 137 mM chloride was replaced by iodide. The initial rate of iodide influx was computed from fluorescence data by non-linear regression.
Collections of synthetic and natural compounds were screened according to the screening procedures described in Example 2. A cell-based fluorescence assay was used in which CFTR inhibitors were identified by reduced iodide influx in FRT cells co-expressing human CFTR and a YFP halide sensor. CFTR was maximally activated by a mixture of agonists having different activating mechanisms. Inhibition of iodide influx was observed as reduced YFP fluorescence quenching in response to rapid iodide addition to each well of 96-well plates. […]

[1] abbreviates: Table 2, screening, 5 μM, read-out: % Inhibition at 5 μM.
Where [2] appears, read: Table 2, screening, 25 μM, read-out: % Inhibition at 25 μM.
Setting [3] is: read-out: % inhibition at 25/5 μM (5 μM value), Table 1, 5 μM compound.
[4] abbreviates: read-out: % inhibition at 25/5 μM (25 μM value), Table 1, 25 μM compound.

T1 sequence (P13569 whole entry): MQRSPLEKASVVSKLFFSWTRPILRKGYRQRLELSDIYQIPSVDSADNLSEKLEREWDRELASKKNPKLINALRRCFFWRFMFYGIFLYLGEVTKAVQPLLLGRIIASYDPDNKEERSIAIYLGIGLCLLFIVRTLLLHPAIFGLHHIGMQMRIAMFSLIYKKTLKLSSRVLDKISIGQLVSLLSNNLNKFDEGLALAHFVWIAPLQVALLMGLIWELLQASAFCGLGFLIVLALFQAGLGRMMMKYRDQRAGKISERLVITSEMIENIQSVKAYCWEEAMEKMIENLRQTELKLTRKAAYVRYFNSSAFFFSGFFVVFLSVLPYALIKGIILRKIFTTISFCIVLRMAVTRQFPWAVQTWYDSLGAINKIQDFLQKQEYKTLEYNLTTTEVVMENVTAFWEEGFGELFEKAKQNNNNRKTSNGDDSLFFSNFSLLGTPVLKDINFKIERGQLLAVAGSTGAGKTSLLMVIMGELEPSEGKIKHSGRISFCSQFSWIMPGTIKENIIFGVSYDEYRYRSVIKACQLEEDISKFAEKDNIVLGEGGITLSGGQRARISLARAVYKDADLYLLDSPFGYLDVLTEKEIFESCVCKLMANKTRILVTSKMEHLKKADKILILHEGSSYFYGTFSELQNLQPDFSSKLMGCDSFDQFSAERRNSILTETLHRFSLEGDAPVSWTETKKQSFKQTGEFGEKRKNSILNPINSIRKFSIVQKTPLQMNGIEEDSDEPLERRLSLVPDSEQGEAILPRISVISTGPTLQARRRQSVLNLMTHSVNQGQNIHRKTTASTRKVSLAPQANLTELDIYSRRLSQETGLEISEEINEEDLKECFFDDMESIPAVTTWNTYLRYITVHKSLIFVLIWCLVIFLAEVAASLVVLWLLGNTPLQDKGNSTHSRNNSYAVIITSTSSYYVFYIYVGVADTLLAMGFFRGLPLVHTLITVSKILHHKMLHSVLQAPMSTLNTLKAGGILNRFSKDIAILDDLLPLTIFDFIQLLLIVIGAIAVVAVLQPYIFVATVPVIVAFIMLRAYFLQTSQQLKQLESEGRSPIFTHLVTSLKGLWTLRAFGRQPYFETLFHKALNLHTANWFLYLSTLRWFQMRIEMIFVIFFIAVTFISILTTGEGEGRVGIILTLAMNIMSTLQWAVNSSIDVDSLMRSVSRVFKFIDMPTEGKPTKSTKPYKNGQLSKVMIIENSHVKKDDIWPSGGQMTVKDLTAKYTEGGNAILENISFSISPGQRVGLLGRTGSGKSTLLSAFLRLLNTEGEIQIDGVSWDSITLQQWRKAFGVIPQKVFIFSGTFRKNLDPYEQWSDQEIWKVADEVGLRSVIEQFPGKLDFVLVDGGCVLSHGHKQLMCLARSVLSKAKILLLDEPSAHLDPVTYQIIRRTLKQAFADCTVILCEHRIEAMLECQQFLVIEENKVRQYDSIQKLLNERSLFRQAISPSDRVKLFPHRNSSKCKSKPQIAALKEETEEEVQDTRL

Take `Cc1ccc(C2Nc3cc(C)c(C)cc3-n3c(-c4ccccc4F)c4c(=O)n(C)c(=O)n(C)c4c32)o1` (stereo not drawn) [PPQ-105, 2,3,7,9-Tetramethyl-11-(2-fluorophenyl)-6-(5-methylfuran-2-yl)-5,6-dihydro-pyrimido[4′,5′-3,4]pyrrolo[1,2-a]quinoxaline-8,10-(7H,9H)-dione]: the IC50 stood at 1500 nM. The inhibition at 5 µM under setting [1] stood at 78%. Moreover, under setting [2], the inhibition at 25 µM is 78%.

As to `Cc1cccc(-c2c3c(=O)n(C)c(=O)n(C)c3c3n2-c2ccccc2NC3c2ccco2)c1` (stereo not drawn) [PPQ-106, 7,9-Dimethyl-11-(3-methylphenyl)-6-(furan-2-yl)-5,6-dihydro-pyrimido[4′,5′-3,4]pyrrolo[1,2-a]quinoxaline-8,10-(7H,9H)-dione], the inhibition at 5 µM under setting [1] was determined as 49%. Further, the inhibition at 25 µM under setting [2] was determined as 96%.

On to `Cc1cc2c(cc1C)-n1c(-c3ccccc3)c3c(=O)n(C)c(=O)n(C)c3c1C(c1ccco1)N2` (stereo not drawn) [PPQ-107, 2,3,7,9-Tetramethyl-11-phenyl-6-(furan-2-yl)-5,6-dihydro-pyrimido[4′,5′-3,4]pyrrolo[1,2-a]quinoxaline-8,10-(7H,9H)-dione], for which, under setting [1], the inhibition at 5 µM worked out at 24%. Under setting [2], the inhibition at 25 µM was 87%.

For the molecule `Cc1ccccc1-c1c2c(=O)n(C)c(=O)n(C)c2c2n1-c1ccccc1NC2c1ccco1` (stereo not drawn) [PPQ-108, 7,9-Dimethyl-11-(2-methylphenyl)-6-(furan-2-yl)-5,6-dihydro-pyrimido[4′,5′-3,4]pyrrolo[1,2-a]quinoxaline-8,10-(7H,9H)-dione], the inhibition at 5 µM under setting [1] amounted to 18%. Further, under setting [2], the inhibition at 25 µM stood at 70%.

With `COc1ccc(-c2c3c(=O)n(C)c(=O)n(C)c3c3n2-c2ccccc2NC3c2ccc(C)o2)cc1` (stereo not drawn) [PPQ-109, 7,9-Dimethyl-11-(4-methoxyphenyl)-6-(5-methylfuran-2-yl)-5,6-dihydro-pyrimido[4′,5′-3,4]pyrrolo[1,2-a]quinoxaline-8,10-(7H,9H)-dione], the inhibition at 5 µM under setting [1] was 12%. Further, the inhibition at 25 µM under setting [2] turned out to be 68%.

On to `Cc1ccc(-c2c3c(=O)n(C)c(=O)n(C)c3c3n2-c2ccccc2NC3c2ccc(C)o2)cc1` (stereo not drawn) [PPQ-110, 7,9-Dimethyl-11-(4-methylphenyl)-6-(5-methylfuran-2-yl)-5,6-dihydro-pyrimido[4′,5′-3,4]pyrrolo[1,2-a]quinoxaline-8,10-(7H,9H)-dione], for which the inhibition at 5 µM under setting [1] turned out to be 21%. Under setting [2], the inhibition at 25 µM stood at 57%.

For the molecule `Cc1ccc(C2Nc3ccccc3-n3c(-c4ccc(Cl)cc4)c4c(=O)n(C)c(=O)n(C)c4c32)o1` (stereo not drawn) [PPQ-111, 7,9-Dimethyl-11-(4-cholophenyl)-6-(5-methylfuran-2-yl)-5,6-dihydro-pyrimido[4′,5′-3,4]pyrrolo[1,2-a]quinoxaline-8,10-(7H,9H)-dione], under setting [1], the inhibition at 5 µM came to 31%. Also, the inhibition at 25 µM under setting [2] stood at 75%.

As to `Cn1c(=O)c2c(-c3ccccc3)n3c(c2n(C)c1=O)C(c1ccco1)Nc1ccccc1-3` (stereo not drawn) [PPQ-112, 7,9-Dimethyl-11-phenyl-6-(5-furan-2-yl)-5,6-dihydro-pyrimido[4′,5′-3,4]pyrrolo[1,2-a]quinoxaline-8,10-(7H,9H)-dione], the inhibition at 5 µM under setting [1] was 11%. In addition, the inhibition at 25 µM under setting [2] was determined as 54%.

With `Cn1c(=O)c2c(-c3ccccc3)n3c(c2n(C)c1=O)C(c1cccs1)Nc1ccccc1-3` (stereo not drawn) [PPQ-113, 7,9-Dimethyl-11-phenyl-6-(thienyl-2-yl)-5,6-dihydro-pyrimido[4′,5′-3,4]pyrrolo[1,2-a]quinoxaline-8,10-(7H,9H)-dione], the inhibition at 5 µM under setting [1] came out at 34%. Further, the inhibition at 25 µM under setting [2] is 77%.

In the case of `Cc1cccc(-c2c3c(=O)n(C)c(=O)n(C)c3c3n2-c2ccccc2NC3c2cccs2)c1` (stereo not drawn) [PPQ-114, 7,9-Dimethyl-11-(3-methylphenyl)-6-(thienyl-2-yl)-5,6-dihydro-pyrimido[4′,5′-3,4]pyrrolo[1,2-a]quinoxaline-8,10-(7H,9H)-dione], the inhibition at 5 µM under setting [1] was 29%. The inhibition at 25 µM under setting [2] was 79%.

As for `Cc1cc2c(cc1C)-n1c(-c3ccccc3)c3c(=O)n(C)c(=O)n(C)c3c1C(c1cccs1)N2` (stereo not drawn) [PPQ-115, 2,3,7,9-Tetramethyl-11-phenyl-6-(thienyl-2-yl)-5,6-dihydro-pyrimido[4′,5′-3,4]pyrrolo[1,2-a]quinoxaline-8,10-(7H,9H)-dione], the inhibition at 5 µM under setting [1] amounted to 14%. In addition, the inhibition at 25 µM under setting [2] was found to be 61%.

As to `Cn1c(=O)c2c(-c3ccccc3F)n3c(c2n(C)c1=O)C(c1cccs1)Nc1ccccc1-3` (stereo not drawn) [PPQ-116, 7,9-Dimethyl-11-(2-fluorophenyl)-6-(thienyl-2-yl)-5,6-dihydro-pyrimido[4′,5′-3,4]pyrrolo[1,2-a]quinoxaline-8,10-(7H,9H )-dione], the inhibition at 5 µM under setting [1] was found to be 47%. Under setting [2], the inhibition at 25 µM is 76%.

In the case of `Cc1ccccc1-c1c2c(=O)n(C)c(=O)n(C)c2c2n1-c1ccccc1NC2c1cccs1` (stereo not drawn) [PPQ-117, 7,9-Dimethyl-11-(2-methylphenyl)-6-(thienyl-2-yl)-5,6-dihydro-pyrimido[4′,5′-3,4]pyrrolo[1,2-a]quinoxaline-8,10-(7H,9H)-dione], the inhibition at 5 µM under setting [1] came to 19%. Also, the inhibition at 25 µM under setting [2] was 67%.

For `Cn1c(=O)c2c(-c3ccccc3)n3c(c2n(C)c1=O)C(c1cccc(F)c1F)Nc1ccccc1-3` (stereo not drawn) [PPQ-201, 7,9-Dimethyl-11-phenyl-6-(2,3-difluorophenyl)-5,6-dihydro-pyrimido[4′,5′-3,4]pyrrolo[1,2-a]quinoxaline-8,10-(7H,9H)-dione], the IC50 was determined as 1200 nM. In addition, the inhibition at 5 µM under setting [3] came out at 72%. For the same molecule, the inhibition at 25 µM under setting [4] turned out to be 93%. For the same molecule, the inhibition at 5 µM under setting [1] stood at 72%. Besides, the inhibition at 25 µM under setting [2] was 93%.

With `Cn1c(=O)c2c(-c3ccccc3)n3c(c2n(C)c1=O)C(c1cccc([N+](=O)[O-])c1)Nc1ccccc1-3` (stereo not drawn) [PPQ-202, 7,9-Dimethyl-11-phenyl-6-(3-nitrophenyl)-5,6-dihydro-pyrimido[4′,5′-3,4]pyrrolo[1,2-a]quinoxaline-8,10-(7H,9H)-dione], the IC50 is 1200 nM. Besides, the inhibition at 5 µM under setting [3] is 60%. The inhibition at 25 µM under setting [4] is 90%. Also, under setting [1], the inhibition at 5 µM was 60%. The inhibition at 25 µM under setting [2] was found to be 90%.

Regarding `Cc1cc2c(cc1C)-n1c(-c3ccccc3)c3c(=O)n(C)c(=O)n(C)c3c1C(c1ccc(O)cc1)N2` (stereo not drawn) [PPQ-203, 2,3,7,9-Tetramethyl-11-phenyl-6-(4-hydroxyphenyl)-5,6-dihydro-pyrimido[4′,5′-3,4]pyrrolo[1,2-a]quinoxaline-8,10-(7H,9H)-dione], the concentration for half-maximal inhibition (IC50) stood at 1500 nM. The inhibition at 5 µM under setting [3] stood at 80%. Besides, the inhibition at 5 µM under setting [1] is 80%. Under setting [2], the inhibition at 25 µM was > 95%.

Take `COc1cccc(C2Nc3ccccc3-n3c(-c4ccccc4)c4c(=O)n(C)c(=O)n(C)c4c32)c1` (stereo not drawn) [PPQ-204, 7,9-Dimethyl-11-phenyl-6-(3-methoxyphenyl)-5,6-dihydro-pyrimido[4′,5′-3,4]pyrrolo[1,2-a]quinoxaline-8,10-(7H,9H)-dione]: the IC50 was determined as 1700 nM. In addition, the inhibition at 5 µM under setting [3] came out at 63%. For the same molecule, the inhibition at 25 µM under setting [4] was 86%. The inhibition at 5 µM under setting [1] was 63%. Moreover, under setting [2], the inhibition at 25 µM came out at 86%.

As to `Cn1c(=O)c2c(-c3ccccc3)n3c(c2n(C)c1=O)C(c1ccccc1F)Nc1ccccc1-3` (stereo not drawn) [PPQ-205, 7,9-Dimethyl-11-phenyl-6-(2-fluorophenyl)-5,6-dihydro-pyrimido[4′,5′-3,4]pyrrolo[1,2-a]quinoxaline-8,10-(7H,9H)-dione], the IC50 was found to be 2000 nM. Besides, under setting [3], the inhibition at 5 µM came to 61%. For the same molecule, the inhibition at 25 µM under setting [4] stood at 81%. Moreover, the inhibition at 5 µM under setting [1] is 61%. The inhibition at 25 µM under setting [2] is 81%.

For the molecule `Cn1c(=O)c2c(-c3ccccc3)n3c(c2n(C)c1=O)C(c1ccccc1)Nc1ccccc1-3` (stereo not drawn) [PPQ-206, 7,9-Dimethyl-11-phenyl-6-phenyl-5,6-dihydro-pyrimido[4′,5′-3,4]pyrrolo[1,2-a]quinoxaline-8,10-(7H,9H)-dione], the IC50 was 2500 nM.

Turning to `Cn1c(=O)c2c(-c3ccccc3)n3c(c2n(C)c1=O)C(c1ccc(O)cc1)Nc1ccccc1-3` (stereo not drawn) [PPQ-207, 7,9-Dimethyl-11-phenyl-6-(4-hydroxyphenyl)-5,6-dihydro-pyrimido[4′,5′-3,4]pyrrolo[1,2-a]quinoxaline-8,10-(7H,9H)-dione], the IC50 was 4500 nM. For the same molecule, the inhibition at 5 µM under setting [3] worked out at 64%. Under setting [4], the inhibition at 25 µM was 86%. Further, the inhibition at 5 µM under setting [1] was 64%. The inhibition at 25 µM under setting [2] was found to be 86%.
